Assay [1] relates to HCV replicon in Huh7 cells. The assay can be described thus: HCV replicon cell-based assay. Also noted: species or system HCV strain 1B. The note with it: Hepatitis C virus, Huh-7, 96 h, HCV replicon, 4 days, read-out: EC50 range. From the text:
HCV Replicon Cell-based Assay
An HCV replicon whole cell system was established as described by Lohmann V, Komer F, Koch J, Herian U, Theilmann L, Bartenschlager R., Science 285(5424):110–3 (1999). This system enabled us to evaluate the effects of our HCV Protease compounds on HCV RNA replication. Briefly, using the HCV strain 1B sequence described in the Lohmann paper (Assession number:AJ238799), an HCV cDNA was generated encoding the 5′ internal ribosome entry site (IRES), the neomycin resistance gene, the EMCV (encephalomyocarditis viurs)-IRES and the HCV nonstructural proteins, NS3-NS5B, and 3′ non-translated region (NTR). In vitro transcripts of the cDNA were transfected into the human hepatoma cell line, Huh7. […] Resulting cell lines were characterized for positive and negative strand RNA production and protein production over time.
Huh7 cells, constitutively expressing the HCV replicon, were grown in Dulbecco's Modified Eagle Media (DMEM) containing 10% Fetal calf serum (FCS) and 1 mg/ml G418 (Gibco-BRL). Cells were seeded the night before (1.5×10^4 cells/well) in 96-well tissue-culture sterile plates. Compound and no compound controls were prepared in DMEM containing 4% FCS, 1:100 Penicillin/Streptomysin, 1:100 L-glutamine and 5% DMSO in the dilution plate (0.5% DMSO final concentration in the assay). Compound/DMSO mixes were added to the cells and incubated for 4 days at 37° C. After 4 days, plates were rinsed thoroughly with Phosphate-Buffered Saline (PBS) (3 times 150 μl). The cells were lysed with 25 μl of a lysis assay reagent containing the FRET peptide (RET S1, as described for the in vitro enzyme assay). The lysis assay reagent was made from 5× cell Luciferase cell culture lysis reagent (Promega #E153A) diluted to 1× with distilled water, NaCl added to 150 mM final, the FRET peptide diluted to 10 μM final from a 2 mM stock in 100% DMSO. The plate was then placed into the Cytofluor 4000 instrument which had been set to 340 nm excitation/490 emission, automatic mode for 21 cycles and the plate read in a kinetic mode. EC50 determinations were carried out as described for the IC50 determinations.
As a secondary assay, EC50 determinations from the replicon FRET assay were confirmed in a quantitative RNA assay. Cells were lyzed using the Rneasy kit (Qiagen). Purified total RNA was normalized using RiboGreen (Jones L J, Yue S T, Cheung C Y, Singer V L, Anal. Chem., 265(2):368–74 (1998)) and relative quantitation of HCV RNA expression assessed using the Taqman procedure (Kolykhalov A A, Mihalik K, Feinstone S M, Rice C M, Journal of Virology 74, 2046–2051 (2000)) and the Platinum Quantitative RT-PCR Thermoscript One-Step kit (Invitrogen cat # 11731-015). Briefly, RNA made to a volume of 5 μl (<1 ng) was added to a 20 μl Ready-Mix containing the following: 1.25× Thermoscript reaction mix (containing Magnesium Sulfate and 2-deoxynucleoside 5′-triphosphates (dNTPs)), 3 mM dNTPs, 200 nM forward primer (sequence: 5′-[…]-3′), 600 nM reverse primer (5′-[…]-3′), 100 nM probe (5′-6-FAM-[…]-BHQ-1-3′)(FAM: Fluorescein-aminohexyl amidite; BHQ: Black Hole Quencher), 1 μM Rbx reference dye (Invitrogen cat # 12223-012) and Thermoscript Plus Platinum Taq polymerase mixture. All primers were designed with ABI Prism 7700 software and obtained from Biosearch Technologies, Novato, Calif. Samples containing known concentrations of HCV RNA transcript were run as standards. Using the following cycling protocol (50° C., 30 min; 95° C., 5 min; 40 cycles of 95° C., 15 sec, 60° C., 1 min), HCV RNA expression was quantitated as described in the Perkin Elmer manual using the ABI Prism 7700 Sequence Detector.
The luciferase reporter assay was also used to confirm compound potency in the replicon. Utilization of a replicon luciferase reporter assay was first described by Krieger et al (Krieger N, Lohmann V, and Bartenschlager R, J. Virol. 75(10):4614–4624 (2001)). […]

Assay [2] concerns the target T1, HCV NS3/4A protease complex (UniProt P27958, C1454S/C1711G, species not given).
T1 construct: fused on or other part: Three-lysine solubilising tail at the C-terminus of NS4A
The assay can be described thus: Recombinant HCV NS3/4A protease complex FRET peptide assay (strain not stated). The class given is biochemical.

Setting [3] is: HCV NS3/4A protease enzyme assay, read-out: IC50 range.

Broadly, the EC50 is the concentration needed to bring the measured effect to its halfway point.

Like-named read-outs stand apart in the source and are kept apart here.

As for `C=CC1C[C@]1(NC(=O)[C@@H]1C[C@@H](OC(=O)Nc2cc(Cl)ccc2C)CN1C(=O)[C@@H](NC(=O)OC(C)(C)C)C(C)(C)C)C(=O)NS(=O)(=O)C1CC1` (stereo partly drawn) [Compound 20, BocNH-P3(t-BuGly)-P(Hyp(O—CO(NH—(5-chloro-2-methyl-phenyl))))-P1(1R,2S VinylAcca)—CONHSO2Cyclopropane], the EC50 in assay [1] was 1 to 10 µM. In assay [2] (setting [3]), the IC50 was below 0.1 µM.
For the compound `C=CC1C[C@]1(NC(=O)[C@@H]1C[C@@H](OC(=O)Nc2cc(C)ccc2F)CN1C(=O)[C@@H](NC(=O)OC(C)(C)C)C(C)(C)C)C(=O)NS(=O)(=O)C1CC1` (stereo partly drawn) [Compound 21, BocNH-P3(t-BuGly)-P2(Hyp(O—CO(NH—(2-fluoro-5-methyl-phenyl))))-P1(1R,2S VinylAcca)—CONHSO2Cyclopropane], in assay [1], the EC50 was 0.1 to 1 µM. Further, the IC50 in assay [2] (setting [3]) is below 0.1 µM.
As for `C=CC1C[C@]1(NC(=O)[C@@H]1C[C@@H](OC(=O)Nc2cc(Cl)cc(Cl)c2)CN1C(=O)[C@@H](NC(=O)OC(C)(C)C)C(C)(C)C)C(=O)NS(=O)(=O)C1CC1` (stereo partly drawn) [Compound 23, BocNH-P3(t-BuGly)-P2(Hyp(O—CO(NH—(3,5-dichloro-phenyl))))-P1(1R,2S VinylAcca)—CONHSO2Cyclopropane], the EC50 in assay [1] lay in the range of 0.1 to 1 µM. The IC50 in assay [2] (read-out: IC50 range, HCV NS3/4A protease enzyme assay) was below 0.1 µM.
With `C=CC1C[C@]1(NC(=O)[C@@H]1C[C@@H](OC(=O)NCc2cccc(F)c2)CN1C(=O)[C@@H](NC(=O)OC(C)(C)C)C(C)(C)C)C(=O)NS(=O)(=O)C1CC1` (stereo partly drawn) [Compound 24, BocNH-P3(t-BuGly)-P2(Hyp(O—CO(NH—(3-fluoro-benzyl))))-P1(1R,2S VinylAcca)—CONHSO2Cyclopropane], in assay [1], the EC50 was above 10 µM. Further, in assay [2] (setting [3]), the IC50 lay in the range of 0.1 to 1 µM.
The matching figures for `C=CC1C[C@]1(NC(=O)[C@@H]1C[C@@H](OC(=O)Nc2cccc(CC)c2)CN1C(=O)[C@@H](NC(=O)OC(C)(C)C)C(C)(C)C)C(=O)NS(=O)(=O)C1CC1` (stereo partly drawn) [Compound 25, BocNH-P3(t-BuGly)-P2(Hyp(O—CO(NH—(3-ethyl-phenyl))))-P1(1R,2S VinylAcca)—CONHSO2Cyclopropane]: 1 to 10 µM and below 0.1 µM.
The matching figures for `C=CC1C[C@]1(NC(=O)[C@@H]1C[C@@H](OC(=O)NCc2ccccc2Cl)CN1C(=O)[C@@H](NC(=O)OC(C)(C)C)C(C)(C)C)C(=O)NS(=O)(=O)C1CC1` (stereo partly drawn) [Compound 26, BocNH-P3(t-BuGly)-P2(Hyp(O—CO(NH—(2-chloro-benzyl))))-P1(1R,2S VinylAcca)—CONHSO2Cyclopropane]: 1 to 10 µM and below 0.1 µM.
For the compound `C=CC1C[C@]1(NC(=O)[C@@H]1C[C@@H](OC(=O)Nc2cccc(OC)c2)CN1C(=O)[C@@H](NC(=O)OC(C)(C)C)C(C)(C)C)C(=O)NS(=O)(=O)C1CC1` (stereo partly drawn) [Compound 27, BocNH-P3(t-BuGly)-P2(Hyp(O—CO(NH—(3-methoxy-phenyl))))-P1(1R,2S VinylAcca)—CONHSO2Cyclopropane], the EC50 in assay [1] fell in the range of 1 to 10 µM. Also, the IC50 in assay [2] (setting [3]) was below 0.1 µM.
Turning to `C=CC1C[C@]1(NC(=O)[C@@H]1C[C@@H](OC(=O)Nc2cccc(C(=O)OCC)c2)CN1C(=O)[C@@H](NC(=O)OC(C)(C)C)C(C)(C)C)C(=O)NS(=O)(=O)C1CC1` (stereo partly drawn) [Compound 28, BocNH-P3(t-BuGly)-P2(Hyp(O—CO(NH—(3-benzoic acid ethyl ester))))-P1(1R,2S VinylAcca)—CONHSO2Cyclopropane], the EC50 in assay [1] was in the range of 1 to 10 µM. In addition, the IC50 in assay [2] (setting [3]) lay in the range of 0.1 to 1 µM.
For the compound `C=CC1C[C@]1(NC(=O)[C@@H]1C[C@@H](OC(=O)Nc2ccccc2SC)CN1C(=O)[C@@H](NC(=O)OC(C)(C)C)C(C)(C)C)C(=O)NS(=O)(=O)C1CC1` (stereo partly drawn) [Compound 29, BocNH-P3(t-BuGly)-P2(Hyp(O—CO(NH—(2-methylsulfanyl-phenyl))))-P1(1R,2S VinylAcca)—CONHSO2Cyclopropane], the EC50 in assay [1] was in the range of 0.1 to 1 µM. Moreover, the IC50 in assay [2] (setting [3]) is below 0.1 µM.
Turning to `C=CC1C[C@]1(NC(=O)[C@@H]1C[C@@H](OC(=O)Nc2ccccc2C(=O)OC)CN1C(=O)[C@@H](NC(=O)OC(C)(C)C)C(C)(C)C)C(=O)NS(=O)(=O)C1CC1` (stereo partly drawn) [Compound 30, BocNH-P3(t-BuGly)-P2(Hyp(O—CO(NH—(2-benzoic acid methyl ester))))-P1(1R,2S VinylAcca)—CONHSO2Cyclopropane], the EC50 in assay [1] is below 0.1 µM. The IC50 in assay [2] (setting [3]) is below 0.1 µM.
As for `C=CC1C[C@]1(NC(=O)[C@@H]1C[C@@H](OC(=O)Nc2cccc(Cl)c2Cl)CN1C(=O)[C@@H](NC(=O)OC(C)(C)C)C(C)(C)C)C(=O)NS(=O)(=O)C1CC1` (stereo partly drawn) [Compound 31, BocNH-P3(t-BuGly)-P2(Hyp(O—CO(NH—(2,3-dichloro-phenyl))))-P1(1R,2S VinylAcca)—CONHSO2Cyclopropane], the EC50 in assay [1] lay within 0.1 to 1 µM. The IC50 in assay [2] (setting [3]) was below 0.1 µM.
For the compound `C=CC1C[C@]1(NC(=O)[C@@H]1C[C@@H](OC(=O)n2c3ccccc3c3ccccc32)CN1C(=O)[C@@H](NC(=O)OC(C)(C)C)C(C)(C)C)C(=O)NS(=O)(=O)C1CC1` (stereo partly drawn) [Compound 32, BocNH-P3(t-BuGly)-P2(Hyp(O—CO(N-(9-carbazolyl))))-P1(1R,2S VinylAcca)—CONHSO2Cyclopropane], in assay [1], the EC50 is below 0.1 µM. In addition, the IC50 in assay [2] (setting [3]) is below 0.1 µM.
As to `C=CC1C[C@]1(NC(=O)[C@@H]1C[C@@H](OC(=O)Nc2ccccc2Br)CN1C(=O)[C@@H](NC(=O)OC(C)(C)C)C(C)(C)C)C(=O)NS(=O)(=O)C1CC1` (stereo partly drawn) [Compound 33, BocNH-P3(t-BuGly)-P2(Hyp(O—CO(NH—(2-bromo-phenyl))))-P1(1R,2S VinylAcca)—CONHSO2Cyclopropane], in assay [1], the EC50 was in the range of 0.1 to 1 µM. For the same compound, the IC50 in assay [2] (setting [3]) lay within 0.1 to 1 µM.
For the compound `C=CC1C[C@]1(NC(=O)[C@@H]1C[C@@H](OC(=O)Nc2cccc(C(F)(F)F)c2)CN1C(=O)[C@@H](NC(=O)OC(C)(C)C)C(C)(C)C)C(=O)NS(=O)(=O)C1CC1` (stereo partly drawn) [Compound 34, BocNH-P3(t-BuGly)-P2(Hyp(O—CO(NH—(3-trifluoromethyl-phenyl))))-P1(1R,2S VinylAcca)—CONHSO2Cyclopropane], the EC50 in assay [1] lay in the range of 1 to 10 µM. Further, the IC50 in assay [2] (setting [3]) was in the range of 0.1 to 1 µM.
Consider `C=CC1C[C@]1(NC(=O)[C@@H]1C[C@@H](OC(=O)Nc2nc(Cl)c(Cl)nc2C(=O)OC)CN1C(=O)[C@@H](NC(=O)OC(C)(C)C)C(C)(C)C)C(=O)NS(=O)(=O)C1CC1` (stereo partly drawn) [Compound 35, BocNH-P3(t-BuGly)-P2(Hyp(O—CO(NH-3-(5,6-Dichloro-pyrazine-2-carboxylic acid methyl ester))))-P1(1R,2S VinylAcca)—CONHSO2Cyclopropane], for which the EC50 in assay [1] was above 10 µM. For the same compound, in assay [2] (setting [3]), the IC50 is below 0.1 µM.
Consider `C=CC1C[C@]1(NC(=O)[C@@H]1C[C@@H](OC(=O)N2CCc3ccccc32)CN1C(=O)[C@@H](NC(=O)OC(C)(C)C)C(C)(C)C)C(=O)NS(=O)(=O)C1CC1` (stereo partly drawn) [Compound 36, BocNH-P3(t-BuGly)-P2(Hyp(O—CO(N-(1-indolinyl))))-P1(1R,2S VinylAcca)—CONHSO2Cyclopropane], for which the EC50 in assay [1] is 0.1 to 1 µM. The IC50 in assay [2] (setting [3]) was below 0.1 µM.
On to `C=CC1C[C@]1(NC(=O)[C@@H]1C[C@@H](OC(=O)Nc2cccc(SC)c2)CN1C(=O)[C@@H](NC(=O)OC(C)(C)C)C(C)(C)C)C(=O)NS(=O)(=O)C1CC1` (stereo partly drawn) [Compound 37, BocNH-P3(t-BuGly)-P2(Hyp(O—CO(NH—(3-methylsulfanyl-phenyl))))-P1(1R,2S VinylAcca)—CONHSO2Cyclopropane], for which the EC50 in assay [1] is 1 to 10 µM. Also, in assay [2] (setting [3]), the IC50 was below 0.1 µM.
